Assay results from ChEMBL document CHEMBL1201862, “PubChem BioAssay data set” (2004).
Active and inactive are the calls of the source.

What was measured:
Format in all cases: functional
[1] = THP-1 cell cytotoxicity, dose response, cytotoxicity control for non-replicating M. tuberculosis project (AID 489025)
[2] = growth suppression of PTEN-null colon cells, dose response, cell-based, HCT116 PTEN knockout (AID 1047);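 also: HCT116 colon tumor cells with PTEN knocked out; cells exposed to compound for 60 hours before readout; potency for loss of cell viability measured by luminescence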
cells = assay: cells
[3] = molecular target: Tyrosine-protein kinase Lck (Homo sapiens, UniProt P06239);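 also: lck was assayed as one member of a kinase panel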
[4] = molecular target: Serine/threonine-protein kinase TBK1 (Homo sapiens, UniProt Q9UHD2); assay: Navigating the Kinome. Panel member name: TBK1
[5] = molecular target: Vascular endothelial growth factor receptor 2 (Homo sapiens, UniProt P35968)
Chain of Vascular endothelial growth factor receptor 2 (P35968 whole entry): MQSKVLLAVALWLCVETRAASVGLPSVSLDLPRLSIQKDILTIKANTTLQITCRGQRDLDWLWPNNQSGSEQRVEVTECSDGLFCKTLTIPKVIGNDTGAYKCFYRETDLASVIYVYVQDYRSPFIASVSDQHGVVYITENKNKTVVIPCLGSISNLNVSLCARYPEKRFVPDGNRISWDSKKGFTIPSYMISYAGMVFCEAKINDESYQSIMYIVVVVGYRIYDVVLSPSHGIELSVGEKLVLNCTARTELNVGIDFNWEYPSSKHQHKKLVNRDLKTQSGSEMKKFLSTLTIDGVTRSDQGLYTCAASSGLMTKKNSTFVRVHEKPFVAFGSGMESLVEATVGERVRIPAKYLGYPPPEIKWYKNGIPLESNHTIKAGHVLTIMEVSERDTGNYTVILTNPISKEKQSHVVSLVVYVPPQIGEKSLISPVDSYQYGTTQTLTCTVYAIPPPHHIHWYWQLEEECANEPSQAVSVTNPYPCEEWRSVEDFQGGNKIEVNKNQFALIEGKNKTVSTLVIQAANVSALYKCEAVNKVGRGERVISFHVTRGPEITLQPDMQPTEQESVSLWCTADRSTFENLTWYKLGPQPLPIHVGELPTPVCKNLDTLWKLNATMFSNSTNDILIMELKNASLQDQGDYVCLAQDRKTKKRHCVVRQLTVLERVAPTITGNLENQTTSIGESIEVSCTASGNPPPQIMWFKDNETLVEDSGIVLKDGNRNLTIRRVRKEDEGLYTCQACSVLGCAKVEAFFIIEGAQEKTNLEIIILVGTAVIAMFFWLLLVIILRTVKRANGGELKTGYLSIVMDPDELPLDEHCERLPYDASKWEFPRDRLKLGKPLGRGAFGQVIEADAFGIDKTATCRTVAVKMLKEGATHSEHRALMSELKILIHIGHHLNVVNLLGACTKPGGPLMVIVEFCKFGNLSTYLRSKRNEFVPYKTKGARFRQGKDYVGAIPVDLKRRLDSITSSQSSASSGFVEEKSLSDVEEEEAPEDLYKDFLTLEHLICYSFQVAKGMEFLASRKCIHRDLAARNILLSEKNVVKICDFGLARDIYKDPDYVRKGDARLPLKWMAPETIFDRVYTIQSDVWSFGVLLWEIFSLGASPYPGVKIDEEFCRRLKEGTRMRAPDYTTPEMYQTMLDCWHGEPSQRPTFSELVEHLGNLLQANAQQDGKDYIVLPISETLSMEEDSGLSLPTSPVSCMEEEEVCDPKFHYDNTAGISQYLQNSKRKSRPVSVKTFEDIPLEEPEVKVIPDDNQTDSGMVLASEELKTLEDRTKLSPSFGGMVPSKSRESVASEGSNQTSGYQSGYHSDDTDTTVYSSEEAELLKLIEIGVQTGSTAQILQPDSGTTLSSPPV

[6] = molecular target: Dual specificity protein kinase CLK4 (Homo sapiens, UniProt Q9HAZ1)
Chain of Dual specificity protein kinase CLK4 (Q9HAZ1 whole entry): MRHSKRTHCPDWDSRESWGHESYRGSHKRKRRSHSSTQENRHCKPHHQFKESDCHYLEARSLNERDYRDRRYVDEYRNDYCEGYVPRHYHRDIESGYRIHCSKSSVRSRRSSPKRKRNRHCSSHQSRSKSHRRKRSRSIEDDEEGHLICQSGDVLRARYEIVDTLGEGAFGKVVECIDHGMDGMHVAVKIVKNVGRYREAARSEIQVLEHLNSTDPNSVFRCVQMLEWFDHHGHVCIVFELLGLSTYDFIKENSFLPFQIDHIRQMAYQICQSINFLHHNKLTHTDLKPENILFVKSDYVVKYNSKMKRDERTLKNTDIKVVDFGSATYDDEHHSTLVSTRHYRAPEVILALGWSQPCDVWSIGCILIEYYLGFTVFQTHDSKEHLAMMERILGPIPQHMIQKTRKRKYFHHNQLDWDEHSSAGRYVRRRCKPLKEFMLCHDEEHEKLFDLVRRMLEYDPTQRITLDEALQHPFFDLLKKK

[7] = molecular target: Leucine-rich repeat serine/threonine-protein kinase 2 (Homo sapiens, UniProt Q5S007);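 also: value from a broad kinome-wide panel profiling study in which LRRK2 was one of the kinases tested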
[8] = molecular target: Tyrosine-protein kinase JAK2 (Homo sapiens, UniProt O60674);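 also: JAK2 tested as one member of a kinase panel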
Chain of Tyrosine-protein kinase JAK2 (O60674 whole entry): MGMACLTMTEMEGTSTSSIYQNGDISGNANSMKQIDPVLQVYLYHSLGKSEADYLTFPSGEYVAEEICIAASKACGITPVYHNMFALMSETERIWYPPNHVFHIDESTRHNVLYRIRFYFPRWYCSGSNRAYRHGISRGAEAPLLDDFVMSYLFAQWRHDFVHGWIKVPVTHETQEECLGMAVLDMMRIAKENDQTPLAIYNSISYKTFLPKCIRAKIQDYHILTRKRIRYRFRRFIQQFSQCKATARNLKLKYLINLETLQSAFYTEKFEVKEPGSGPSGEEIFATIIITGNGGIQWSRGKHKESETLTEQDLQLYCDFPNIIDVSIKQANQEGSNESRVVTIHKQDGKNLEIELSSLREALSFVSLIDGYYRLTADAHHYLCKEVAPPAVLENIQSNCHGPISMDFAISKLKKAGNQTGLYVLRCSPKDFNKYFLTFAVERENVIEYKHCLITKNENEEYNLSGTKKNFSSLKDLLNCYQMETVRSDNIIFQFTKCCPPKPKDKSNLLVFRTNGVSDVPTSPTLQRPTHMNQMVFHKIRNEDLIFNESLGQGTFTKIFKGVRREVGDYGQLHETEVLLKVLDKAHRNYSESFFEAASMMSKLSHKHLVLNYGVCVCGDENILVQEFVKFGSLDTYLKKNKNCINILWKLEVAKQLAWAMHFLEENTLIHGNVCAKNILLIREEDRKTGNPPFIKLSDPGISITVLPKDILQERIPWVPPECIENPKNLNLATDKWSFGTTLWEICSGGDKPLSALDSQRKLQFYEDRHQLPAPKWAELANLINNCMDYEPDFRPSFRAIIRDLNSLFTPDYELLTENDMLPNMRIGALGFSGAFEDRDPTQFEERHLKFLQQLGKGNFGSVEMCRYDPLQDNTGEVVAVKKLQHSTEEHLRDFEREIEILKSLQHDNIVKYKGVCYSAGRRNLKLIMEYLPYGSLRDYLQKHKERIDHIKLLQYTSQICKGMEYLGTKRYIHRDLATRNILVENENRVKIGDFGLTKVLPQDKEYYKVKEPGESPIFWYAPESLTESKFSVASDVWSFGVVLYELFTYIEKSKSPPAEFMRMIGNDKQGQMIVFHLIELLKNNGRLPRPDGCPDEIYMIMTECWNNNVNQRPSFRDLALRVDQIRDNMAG

[9] = molecular target: Glycogen synthase kinase-3 beta (Homo sapiens, UniProt P49841);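 also: value comes from a broad kinome profiling panel, with GSK3B as the panel member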
Chain of Glycogen synthase kinase-3 beta (P49841 whole entry): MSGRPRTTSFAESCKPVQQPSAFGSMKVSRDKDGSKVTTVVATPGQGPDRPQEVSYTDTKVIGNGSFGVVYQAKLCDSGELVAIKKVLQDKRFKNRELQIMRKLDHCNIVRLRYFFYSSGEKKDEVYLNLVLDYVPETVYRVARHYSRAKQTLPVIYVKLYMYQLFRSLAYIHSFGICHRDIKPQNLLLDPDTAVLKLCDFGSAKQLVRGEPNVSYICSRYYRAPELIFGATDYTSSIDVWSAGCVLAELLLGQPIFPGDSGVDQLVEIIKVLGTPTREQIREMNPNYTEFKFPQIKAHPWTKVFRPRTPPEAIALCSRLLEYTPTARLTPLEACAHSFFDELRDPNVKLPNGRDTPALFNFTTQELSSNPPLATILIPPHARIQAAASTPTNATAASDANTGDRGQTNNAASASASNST

[10] = molecular target: Macrophage-stimulating protein receptor (Homo sapiens, UniProt Q04912); assay: Navigating the Kinome. Panel member name: MST1R
[11] = molecular target: Proto-oncogene tyrosine-protein kinase receptor Ret (Homo sapiens, UniProt P07949);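 also: measured within a kinome-wide profiling panel, RET as the panel member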
[12] = molecular target: T1, Tyrosine-protein kinase JAK3 (Homo sapiens, UniProt P52333)
T1 sequence (P52333 whole entry): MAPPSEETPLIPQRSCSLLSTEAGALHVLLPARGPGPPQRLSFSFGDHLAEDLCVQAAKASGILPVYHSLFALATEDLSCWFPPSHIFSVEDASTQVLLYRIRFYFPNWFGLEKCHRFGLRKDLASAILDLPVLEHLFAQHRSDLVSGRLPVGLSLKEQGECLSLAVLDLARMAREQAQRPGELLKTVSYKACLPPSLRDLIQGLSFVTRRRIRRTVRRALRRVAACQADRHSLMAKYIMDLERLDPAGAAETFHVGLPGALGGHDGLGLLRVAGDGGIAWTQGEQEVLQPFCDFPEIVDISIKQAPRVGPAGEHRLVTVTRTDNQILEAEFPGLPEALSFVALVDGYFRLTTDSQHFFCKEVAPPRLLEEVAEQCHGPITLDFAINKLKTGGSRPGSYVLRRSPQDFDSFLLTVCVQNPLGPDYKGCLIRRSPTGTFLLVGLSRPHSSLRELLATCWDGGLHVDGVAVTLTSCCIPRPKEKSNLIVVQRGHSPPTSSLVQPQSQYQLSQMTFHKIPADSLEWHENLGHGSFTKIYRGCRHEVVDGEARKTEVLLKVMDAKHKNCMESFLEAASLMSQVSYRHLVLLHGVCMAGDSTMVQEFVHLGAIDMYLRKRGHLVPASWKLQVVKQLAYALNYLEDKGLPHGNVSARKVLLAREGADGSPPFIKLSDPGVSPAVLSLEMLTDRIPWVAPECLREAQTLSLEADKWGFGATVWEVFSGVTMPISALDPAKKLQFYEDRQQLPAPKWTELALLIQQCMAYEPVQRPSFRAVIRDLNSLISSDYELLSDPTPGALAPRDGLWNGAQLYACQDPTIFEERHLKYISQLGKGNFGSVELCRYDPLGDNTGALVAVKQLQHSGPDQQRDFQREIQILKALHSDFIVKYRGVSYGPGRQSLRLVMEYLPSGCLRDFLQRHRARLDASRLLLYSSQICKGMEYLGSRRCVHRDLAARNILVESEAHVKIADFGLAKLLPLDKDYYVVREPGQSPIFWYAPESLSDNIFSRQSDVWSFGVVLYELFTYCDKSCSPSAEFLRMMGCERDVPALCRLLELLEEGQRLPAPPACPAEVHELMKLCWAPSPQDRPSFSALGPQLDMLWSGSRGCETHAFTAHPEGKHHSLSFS

Aurora kinase A = Aurora kinase A (Homo sapiens, UniProt O14965);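 also: value from the Navigating the Kinome kinase panel profiling, panel entry STK6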
[13] = molecular target: Mitogen-activated protein kinase 14 (Homo sapiens, UniProt Q16539);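 also: part of a kinome-wide panel, MAPK14 entry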
Chain of Mitogen-activated protein kinase 14 (Q16539 whole entry): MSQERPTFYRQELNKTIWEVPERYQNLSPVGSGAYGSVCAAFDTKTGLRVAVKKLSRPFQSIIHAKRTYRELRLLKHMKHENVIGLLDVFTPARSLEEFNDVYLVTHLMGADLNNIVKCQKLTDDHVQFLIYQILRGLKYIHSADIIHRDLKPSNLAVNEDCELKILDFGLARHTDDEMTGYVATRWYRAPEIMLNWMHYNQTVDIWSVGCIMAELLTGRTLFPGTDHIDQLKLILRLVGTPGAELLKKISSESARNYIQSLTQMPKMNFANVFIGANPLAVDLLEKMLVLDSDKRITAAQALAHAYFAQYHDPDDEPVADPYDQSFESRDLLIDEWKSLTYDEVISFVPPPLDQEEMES

Activin receptor type-1 = molecular target: T2, Activin receptor type-1 (Homo sapiens, UniProt Q04771); assay: Navigating the Kinome. Panel member name: ACVR1
T2 sequence (Q04771 whole entry): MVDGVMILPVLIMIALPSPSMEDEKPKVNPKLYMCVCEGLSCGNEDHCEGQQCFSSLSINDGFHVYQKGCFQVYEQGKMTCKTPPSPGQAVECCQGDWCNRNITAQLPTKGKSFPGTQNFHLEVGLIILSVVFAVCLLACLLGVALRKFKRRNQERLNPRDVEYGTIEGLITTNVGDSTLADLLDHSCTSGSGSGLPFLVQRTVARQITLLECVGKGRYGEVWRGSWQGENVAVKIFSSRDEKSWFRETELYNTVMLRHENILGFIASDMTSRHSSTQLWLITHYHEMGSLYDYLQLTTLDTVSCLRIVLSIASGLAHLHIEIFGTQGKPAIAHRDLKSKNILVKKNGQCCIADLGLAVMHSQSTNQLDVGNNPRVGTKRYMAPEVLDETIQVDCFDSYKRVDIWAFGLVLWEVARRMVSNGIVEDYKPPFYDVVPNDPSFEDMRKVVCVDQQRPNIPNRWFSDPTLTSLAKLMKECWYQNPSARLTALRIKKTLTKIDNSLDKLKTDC

Aurora kinase B = Aurora kinase B (Homo sapiens, UniProt Q96GD4)
Chain of Aurora kinase B (Q96GD4 whole entry): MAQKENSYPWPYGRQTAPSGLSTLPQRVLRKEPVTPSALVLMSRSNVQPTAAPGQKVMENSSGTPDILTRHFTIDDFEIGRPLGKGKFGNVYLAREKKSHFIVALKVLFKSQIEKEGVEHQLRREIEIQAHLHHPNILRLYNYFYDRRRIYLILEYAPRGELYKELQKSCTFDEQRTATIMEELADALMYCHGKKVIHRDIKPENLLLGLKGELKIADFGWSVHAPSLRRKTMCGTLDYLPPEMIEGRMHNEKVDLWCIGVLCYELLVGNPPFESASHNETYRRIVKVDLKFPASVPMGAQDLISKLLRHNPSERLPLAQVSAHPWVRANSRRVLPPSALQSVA

[14] = molecular target: Tyrosine-protein kinase Fyn (Homo sapiens, UniProt P06241)
[15] = molecular target: Dual specificity mitogen-activated protein kinase kinase 1 (Homo sapiens, UniProt Q02750); assay: Navigating the Kinome. Panel member name: MAP2K1
Chain of Dual specificity mitogen-activated protein kinase kinase 1 (Q02750 whole entry): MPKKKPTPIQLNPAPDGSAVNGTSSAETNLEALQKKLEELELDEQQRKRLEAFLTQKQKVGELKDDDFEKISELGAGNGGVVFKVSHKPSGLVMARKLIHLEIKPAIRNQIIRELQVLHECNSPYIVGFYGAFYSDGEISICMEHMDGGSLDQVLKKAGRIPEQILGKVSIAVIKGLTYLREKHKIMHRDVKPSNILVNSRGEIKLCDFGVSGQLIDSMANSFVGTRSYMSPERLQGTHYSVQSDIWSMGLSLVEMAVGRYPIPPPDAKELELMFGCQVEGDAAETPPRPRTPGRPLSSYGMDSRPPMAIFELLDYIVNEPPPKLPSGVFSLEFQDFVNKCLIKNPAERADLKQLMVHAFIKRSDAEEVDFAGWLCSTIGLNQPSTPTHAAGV

[16] = molecular target: Leukocyte tyrosine kinase receptor (Homo sapiens, UniProt P29376); assay: Navigating the Kinome. Panel member name: LTK
[17] = molecular target: Fibroblast growth factor receptor 1 (Homo sapiens, UniProt P11362)
[18] = molecular target: Tyrosine-protein kinase receptor TYRO3 (Homo sapiens, UniProt Q06418);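 also: TYRO3 value obtained as one member of a kinome-wide profiling panel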
[19] = molecular target: Dual specificity protein kinase CLK2 (Homo sapiens, UniProt P49760)
Chain of Dual specificity protein kinase CLK2 (P49760 whole entry): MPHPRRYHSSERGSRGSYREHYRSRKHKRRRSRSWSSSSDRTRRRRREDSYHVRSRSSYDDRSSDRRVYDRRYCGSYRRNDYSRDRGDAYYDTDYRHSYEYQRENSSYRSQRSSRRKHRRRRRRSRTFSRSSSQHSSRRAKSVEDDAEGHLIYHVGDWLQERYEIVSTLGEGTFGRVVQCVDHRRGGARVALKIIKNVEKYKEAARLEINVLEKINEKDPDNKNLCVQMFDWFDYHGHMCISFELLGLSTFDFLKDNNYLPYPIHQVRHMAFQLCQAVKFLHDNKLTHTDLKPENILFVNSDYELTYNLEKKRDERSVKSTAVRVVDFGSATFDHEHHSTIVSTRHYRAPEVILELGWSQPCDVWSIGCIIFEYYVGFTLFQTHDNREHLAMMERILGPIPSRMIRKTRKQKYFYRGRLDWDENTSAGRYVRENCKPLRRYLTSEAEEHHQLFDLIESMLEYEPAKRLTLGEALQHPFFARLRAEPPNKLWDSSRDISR

CCOC(=O)c1ccc(NC2=CC(=O)C(=O)c3ccccc32)cc1
CC50 [1]: 15.2 µM (active)
EC50 [2]: 15.5 µM (active)
IC50 (cells): 19.2 µM (active)

O=C(O)C1CN(Cc2ccc(OCc3ccccc3)cc2Cl)C1
Ki [3]: > 6.31 µM (inactive)
Ki [4]: > 3.16 µM (inactive)
Ki [5]: > 2.51 µM (inactive)
Ki [6]: > 2.51 µM (inactive)
Ki [7]: > 2.51 µM (inactive)
Ki [8]: > 2.51 µM (inactive)
Ki [9]: > 3.98 µM (inactive)
Ki [10]: > 3.98 µM (inactive)
Ki [11]: > 3.16 µM (inactive)
Ki [12]: > 5.01 µM (inactive)
Ki (Aurora kinase A): > 1.58 µM (inactive)
Ki [13]: > 3.98 µM (inactive)
Ki (Activin receptor type-1): 126 nM (active)
Ki (Aurora kinase B): > 3.98 µM (inactive)
Ki [14]: > 6.31 µM (inactive)
Ki [15]: > 3.16 µM (inactive)
Ki [16]: > 2.51 µM (inactive)
Ki [17]: > 3.98 µM (inactive)
Ki [18]: > 3.16 µM (inactive)
Ki [19]: > 3.98 µM (inactive)

OC(CNCCC1C=Nc2ccccc21)Cn1c2ccc(Cl)cc2c2cc(Cl)ccc21 (configuration not stated)
EC50 [2]: 2.73 µM (active)

NC1CCC(Nc2nc(Cl)cc(-c3c[nH]c4ncccc34)n2)CC1 (configuration not stated)
Ki [3]: 3.16 µM (active)
pKi [3]: 5.5
Ki [4]: 2 µM (active)
Ki [5]: 0.794 µM (active)
pKi [5]: 6.1
Ki [6]: 0.001 µM (active)
pKi [6]: 9
Ki [7]: 0.002 µM (active)
pKi [7]: 8.7
Ki [8]: 0.794 µM (active)
pKi [8]: 6.1
Ki [9]: 0.398 µM (active)
pKi [9]: 6.4
Ki [10]: 0.0631 µM (active)
pKi [10]: 7.2
Ki [11]: 2 µM (active)
pKi [11]: 5.7
Ki [12]: 0.158 µM (active)
pKi [12]: 6.8
Ki (Aurora kinase A): > 1.58 µM (inactive)
Ki [13]: 2 µM (active)
pKi [13]: 5.7
Ki (Activin receptor type-1): 631 nM (active)
pKi (Activin receptor type-1): 6.2
Ki (Aurora kinase B): 0.251 µM (active)
pKi (Aurora kinase B): 6.6
Ki [14]: > 6.31 µM (inactive)
Ki [15]: 0.02 µM (active)
pKi [15]: 7.7
Ki [16]: 0.126 µM (active)
pKi [16]: 6.9
Ki [17]: 3.98 µM (active)
pKi [17]: 5.4
Ki [18]: 2.51 µM (active)
Ki [19]: 0.00794 µM (active)
pKi [19]: 8.1

Cc1ccccc1-c1cc2c(nn1)-c1ccccc1C2=O
CC50 [1]: 36.2 µM (active)
IC50 (cells): 14.7 µM (active)
